Common to all, as to assay type: cell-based
The test system of assay [1] is Human Acute Myelomonocytic Leukemia HL-60. The assay can be described thus: Cell proliferation experiment (Alarm blue, 72 h, EC50). To be noted: HL-60 cells. The method, boiled down: (§1)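 Alamar blue fluorescence after 72 h compound exposure; 5-fold serial dilutions, duplicate wells per concentration; EC50 from four-parameter logistic fit.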
In assay [2] the test system is Human Colon Cancer HCT-116. The description is as above. To be noted: Homo sapiens, HCT-116; HCT116 cells. The method, boiled down: as §1
In assay [3] the test system is Human Monocytic Leukemia MV4-11. Described as above. To be noted: Homo sapiens. The method, boiled down:
as §1

Assay [4] deals with HUVEC. Briefly: Cell proliferation experiment (EC50), HUVEC. To be noted: Homo sapiens.
For assay [5], the system named is PBMC. The assay can be described thus: Cell proliferation experiment (EC50), PBMC.
The target in assay [6] is T1, PLK1 (Homo sapiens, UniProt P53350).
T1 construct: endogenous in cells
Briefly: Western blot, protein degradation (DC50). The method, boiled down:
(§2)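 Protein loss read by ECL Western blot after compound treatment of cells; RIPA lysates run on 4%-12% SDS-PAGE, transferred to PVDF, primary antibody overnight at 4° C. Degradation derived from quantified band intensities.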
(A western blot detects proteins with antibodies after separation by electrophoresis.)

The test system of assay [7] is HUVEC. The assay can be described thus: Cell proliferation experiment (EC50), HUVEC. To be noted: Homo sapiens. This is another data set of the same source.
In assay [8] the test system is PBMC. Briefly: Cell proliferation experiment (EC50), PBMC. The source holds these as a separate data set.
The test system of assay [9] is Human Colon Cancer HT-29. The assay can be described thus: Cell proliferation experiment (Alarm blue, 72 h, EC50). To be noted: Homo sapiens; HT-29 cells. The method, boiled down:
as §1

In assay [10] the test system is Human Glioma Cells U-87 MG. The description is as above. To be noted: Homo sapiens; U-87MG cells. The method, boiled down:
as §1

Assay [11] relates to Human Small Cell Lung Cancer NCI-H82. The description is as above. To be noted: Homo sapiens, NCI-H82; NCIH82 cells. The method, boiled down:
as §1

Assay [12] relates to Daudi. Briefly: Cell proliferation experiment (EC50), Daudi. To be noted: Homo sapiens; Daudi cells.
Assay [13] concerns Human Breast Cancer MDA-MB-231. Briefly: Cell proliferation experiment (Alarm blue, 72 h, EC50). To be noted: Homo sapiens; MDA-MB-231 cells. The method, boiled down:
as §1

The test system of assay [14] is Human Monocytic Leukemia THP-1. The assay is described as above. To be noted: THP-1 cells. The method, boiled down:
as §1

Assay [15] relates to Human cervical adenocarcinoma cells Hela. Described as above. To be noted: Homo sapiens. The method, boiled down:
as §1

Assay [16] deals with T2, BRD4 (Homo sapiens, UniProt O60885).
T2 construct: endogenous in cells
Briefly: Western blot, protein degradation (DC50). The method, boiled down: as §2

The test system of assay [17] is Human Acute Lymphoblastic Leukemia Cells MOLT-4. Briefly: Cell proliferation experiment (Alarm blue, 72 h, EC50). To be noted: MOL4-4 cells. The method, boiled down:
as §1

Assay [18] relates to Human Ovarian Cancer SK-OV-3. Described as above. To be noted: Homo sapiens, SK-OV-3; SKO3 cells. The method, boiled down: as §1
Assay [19] deals with HUVEC. The assay can be described thus: Cell proliferation experiment (EC50), HUVEC. To be noted: Homo sapiens. The source holds these as a separate data set.
The test system of assay [20] is PBMC. The assay can be described thus: Cell proliferation experiment (EC50), PBMC. This is another data set of the same source.
In assay [21] the test system is Daudi. Briefly: Cell proliferation experiment (EC50), Daudi. To be noted: Homo sapiens; Daudi cells. The source holds these as a separate data set.
Assay [22] has as its system U937. Briefly: Cell proliferation experiment (EC50), U937. To be noted: Homo sapiens, U-937; U937 cells.
The subject of assay [23] is A549. Briefly: Cell proliferation experiment (EC50), A549. To be noted: Homo sapiens; A549 cells.

Read-outs that look alike come from different tables or passages of the source.

T1 sequence (P53350 whole entry): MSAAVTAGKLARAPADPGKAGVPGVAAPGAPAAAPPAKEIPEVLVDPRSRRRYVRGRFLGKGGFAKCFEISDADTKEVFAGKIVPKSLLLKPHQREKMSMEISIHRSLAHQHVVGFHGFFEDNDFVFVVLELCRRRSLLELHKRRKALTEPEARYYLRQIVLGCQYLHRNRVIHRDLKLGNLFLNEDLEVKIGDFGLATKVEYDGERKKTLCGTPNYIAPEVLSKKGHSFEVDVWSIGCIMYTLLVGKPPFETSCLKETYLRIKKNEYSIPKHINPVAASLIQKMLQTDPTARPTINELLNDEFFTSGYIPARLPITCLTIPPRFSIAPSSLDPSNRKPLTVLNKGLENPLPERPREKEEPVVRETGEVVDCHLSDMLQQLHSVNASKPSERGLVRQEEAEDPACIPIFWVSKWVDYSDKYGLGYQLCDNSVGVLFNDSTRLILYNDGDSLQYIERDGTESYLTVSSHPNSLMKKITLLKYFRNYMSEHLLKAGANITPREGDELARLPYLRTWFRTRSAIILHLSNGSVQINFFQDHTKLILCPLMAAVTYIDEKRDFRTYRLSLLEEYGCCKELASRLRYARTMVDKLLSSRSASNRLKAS

Take `O=C1CCC(N2Cc3c(NC(=O)CCOCCOCCOCCNC(=O)c4ccc(Nc5ncc6c(n5)-c5ccc(Cl)cc5C(c5c(F)cccc5F)=NC6)cc4)cccc3C2=O)C(=O)N1` (stereo not drawn) [UB-180535]: the EC50 (in general, the midpoint of the concentration-response curve) in assay [1] was over 1000 nM; in assay [2], over 1000 nM; in assay [3] (MV4-11, MV4;11 cells), 10 to 100 nM; in assay [4], over 1000 nM; in assay [5], over 1000 nM.
`O=C1CCC(N2Cc3c(NC(=O)CCOCCOCCOCCNC(=O)[C@]4(Cc5cccc(Nc6nccs6)n5)CC[C@@H](Oc5cccc(Cl)c5F)CC4)cccc3C2=O)C(=O)N1` (stereo partly drawn) [UB-180581]: the EC50 is 100 to 1000 nM in assay [1]; over 1000 nM in assay [2]; 10 to 100 nM in [3] (MV4-11, MV4;11 cells); over 1000 nM in assay [7]; over 1000 nM in assay [8]. Further, in [6] (6 h, read-out: PLK1 DC50 (6 h)), the DC50 (commonly the concentration giving 50% degradation) was under 10 nM.
With `CC[C@@H]1C(=O)N(C)c2cnc(Nc3ccc(C(=O)NCCOCCOCCOCCC(=O)Nc4cccc5c4CN(C4CCC(=O)NC4=O)C5=O)cc3OC)nc2N1C1CCCC1` (stereo partly drawn) [UB-180605], the EC50 in assay [9] is 100 to 1000 nM; in assay [10], 100 to 1000 nM; in [3] (MV4-11, MV4;11 cells), 10 to 100 nM; in assay [11] it was 100 to 1000 nM; in [12], 100 to 1000 nM.
Consider `CC[C@@H]1C(=O)N(C)c2cnc(Nc3ccc(C(=O)NCCOCCOCCOCCNCCC(=O)Nc4cccc5c4CN(C4CCC(=O)NC4=O)C5=O)cc3OC)nc2N1C1CCCC1` (stereo partly drawn) [UB-180633], for which the EC50 in [1] was 100 to 1000 nM; in assay [13] it was 100 to 1000 nM; in assay [2], over 1000 nM; in [9], 100 to 1000 nM; in assay [10] it was 100 to 1000 nM; in [3] (MV4;11 cells), 10 to 100 nM. In addition, the concentration giving a half-maximal response (EC50) in [14] was 100 to 1000 nM; in assay [11], over 1000 nM; in assay [15], 100 to 1000 nM; in assay [7], over 1000 nM; in assay [8], over 1000 nM. Further, the DC50 is under 10 nM in [16] (6 h, read-out: BRD4 DC50 (6 h)); under 10 nM in assay [16] (24 h, read-out: BRD4 DC50 (24 h)); 100 to 1000 nM in assay [6] (6 h, read-out: PLK1 DC50 (6 h)); 10 to 100 nM in [6] (24 h, read-out: PLK1 DC50 (24 h)).
In the case of `CC[C@@H]1CN(C)c2cnc(Nc3ccc(C(=O)NCCOCCOCCOCCNCCC(=O)Nc4cccc5c4CN(C4CCC(=O)NC4=O)C5=O)cc3OC)nc2N1Cc1ccc(Cl)s1` (stereo partly drawn) [UB-180701], the half-maximal effective concentration (EC50) in assay [17], in assay [1], in assay [13], in [2], in assay [9] and in [10] was 100 to 1000 nM in each case. For the same molecule, the EC50 in [3] (MV4;11 cells) was under 10 nM; in assay [14] it was 100 to 1000 nM; in [18], 100 to 1000 nM; in assay [11], 100 to 1000 nM; in assay [15], 100 to 1000 nM; in assay [19] it was over 1000 nM. Moreover, the EC50 was over 1000 nM in [20], 100 to 1000 nM in assay [21], 100 to 1000 nM in assay [22] and 100 to 1000 nM in assay [23]. The DC50 in [16] (6 h, western blot, read-out: BRD4 DC50 (6 h)) is under 10 nM; in assay [16] (24 h, western blot, read-out: BRD4 DC50 (24 h)) it was under 10 nM; in assay [6] (6 h, western blot, read-out: PLK1 DC50 (6 h)), 10 to 100 nM; in assay [6] (24 h, western blot, read-out: PLK1 DC50 (24 h)) it was under 10 nM.

These data come from patent publication US20210369853A1, “TARGETED PROTEASE DEGRADATION PLATFORM” (EUBULUS BIOTHERAPEUTICS INC., priority 2018, published 2021).
